Laboratory results: paper PMC6005845 (Frontiers in Cardiovascular Medicine, 2018)
Like-named read-outs stand apart in the source and are kept apart here.

Columns and labels:
MCP-1 = assay: Plasma MCP-1 ELISA; assay type: in vivo, APOE*3Leiden.CETP mice; conditions: after 16 weeks of treatment
Description: (§1) Pouwer et al Supplementary material […]
(§2) The inflammatory markers SAA, E-selectin and MCP-
(§3) according to the manufacturer’s instruction. […]

[1] = Pharmacokinetic analysis and plasma drug concentrations (LC-MS/MS); assay type: in vivo, APOE*3Leiden.CETP mice; conditions: APOE*3Leiden.CETP, mouse, plasma; for AUC(0-t): read-out: AUC0–24
Description: Animal experiments were approved by the Institutional Animal Care and Use Committee of The Netherlands Organization for Applied Research under registration number 3557.
PK analysis and plasma drug concentrations
EDTA plasma samples collected during the 24-hour PK study and at week 16 of the (cardio)vascular risk factor-atherosclerosis study were subsequently stored at -80°C until analysis. Thawed plasma samples (50μL) were de-proteinized with two volumes of acetonitrile containing an appropriate src-inhibitor chemotype as internal standard for each analyte.
Following deproteinization, a 5μL portion of clear supernatant was then subjected to solvent gradient separation in an Agilent 1100 series HPLC system interfaced to a Micromass triple-quadrupole mass spectrometer, which was operated in the positive ion electrospray MRM mode to obtain daughter ions for quantitation: Ion transitions used for quantitation were as follows: […]
curves ranging from 1 nM to 6 uM were fitted with a quadratic regression weighted by reciprocal concentration (1/x). LLOQ for the purposes of this assay was between 1 and 2 nM for all compounds analyzed. QC samples at three levels in the range of the standard curve were used to accept individual analytical sets, and all results were calculated as the mean of triplicate determinations ± standard error. Tmax, Cmax and AUCs were calculated using the software Berkeley Madonna (version 8.3.18). […]

liver = assay: Liver gene expression analysis (RNA sequencing) and pathway analysis; assay type: in vivo, APOE*3Leiden.CETP mice; conditions: vs control, Figure 7: imatinib 150, nilotinib 30, ponatinib 10 mg/kg
Description: To find early molecular signatures of other clinically relevant processes induced by the anti-CML drugs, gene expression and pathway analysis was performed in the liver as the central organ in lipid metabolism and synthesis of coagulation factors. To identify drug-specific molecular responses and overlap between the various treatments, the total number of differentially expressed genes (DEG) was assessed and a Venn-diagram was constructed comprising all DEG compared to control group. […]
Messenger RNA was isolated from liver of 8 mice per group, using the NEBNext Ultra RNA
sample Prep Kit. After fragmentation of the mRNA, cDNA synthesis was performed. The

AST = assay: Plasma AST (pooled samples); conditions: after 16 weeks
[2] = tested on: peripheral blood mononuclear cells; assay: Flow cytometric analysis (FACS) of PBMCs and monocyte subsets; conditions: for CD11b+Ly6Clow / Number of live/single PBMCs per mL blood: after 12 weeks
ALT = assay: Plasma ALT (pooled samples); conditions: after 16 weeks
SAA = assay: Plasma SAA ELISA; assay type: in vivo, APOE*3Leiden.CETP mice; conditions: after 16 weeks of treatment
Description: as §1, §2, §3

APOE*3Leiden.CETP mice [3] = assay: Histological assessment of atherosclerosis (lesion area, number, severity) in the aortic root; assay type: in vivo; conditions: 16 weeks
Description: Significance of differences between the groups was calculated in SPSS 22.0 for Windows. Normally distributed data was tested parametrically using a one-way ANOVA for multiple comparisons with a Dunnett’s post-hoc test. Non-parametric data were compared separately with a Mann-Whitney U test with adjusted rejection criteria using a Bonferroni-Holm correction. Correlations between lesion size (after square root transformation) and cholesterol exposure were calculated with a Pearson’s correlation test. All groups were compared with the control group. Values are presented as means ± SD and p-values < 0.05 were considered statistically significant.
Pouwer et al Supplementary material
Dickinson, Franklin Lakes, New Jersey, USA). […]
Histological assessment of lung morphology and atherosclerosis […]
The caudal lung was cross […]
direction of the aortic arch. […]
valve leaflets and smooth muscle cells instead of collagen-rich tissue, serial cross sections (5 µm thick with intervals of 50 µm) were taken and mounted on AAS-coated slides. These sections were stained with hematoxylin-phloxine-saffron (HPS) for histological analysis. For each mouse, atherosclerosis was measured in 4 subsequent cross sections. Each section consisted of 3 segments. The average total lesion area per cross section was then calculated20
22. For determination of lesion severity the lesions were classified into five categories according to the American Heart Association classification 23: 0) no lesion I) early fatty streak, II) regular fatty streak, III) mild plaque, IV) moderate plaque, and V) severe plaque. The percentage of each lesion type was calculated, where type I-III lesions were classified as mild lesions and type IV-V lesions were classified as severe lesions 20 22. In the aortic root, lesion composition was determined for the severe lesions (type IV -V) as a percentage of lesion area after immunostaining with anti-human alpha-actin (1:400; PROGEN Biotechnik GmbH, Germany) for smooth muscle cells (SMC), and anti -mouse Mac-3 (1:50; BD Pharmingen, the Netherlands) for macrophages followed by Sirius Red staining. After Sirius Red staining for collagen, color intensity was determined in ImageJ and the used threshold was confirmed by evaluation of the sections under polarized light 24. Necrotic area and cholesterol clefts were measured after HPS staining13 20 22. Lesion stability index was calculated as described pre viously13 20. In each segment used for lesion quantification, the number of monocytes adhering to the endothelium were counted after immunostaining with AIA 31240 antibody (1:1000; Accurate Chemical and Scientific, New York, New York, USA) 14 20. […]

APOE*3Leiden.CETP mice [4] = assay: Blood pressure and heart rate (tail cuff); assay type: in vivo; conditions: after 2 and 15 weeks of treatment, all dose groups, vs control
Description: as §1

[5] = po, repeated dose, QD, 3 mg/kg, after 16 weeks
[6] = po, repeated dose, QD, 10 mg/kg, after 16 weeks

**Q.** With `Cc1ccc(C(=O)Nc2ccc(CN3CCN(C)CC3)c(C(F)(F)F)c2)cc1C#Cc1cnc2cccnn12` [Ponatinib, ponatinib] as the molecule, how does the MCP-1 (MCP-1; 3 mg/kg QD) read?
**A.** Its MCP-1 is 78 ± 29 pg/mL.

**Q.** And the MCP-1 (MCP-1; 10 mg/kg QD)?
**A.** The MCP-1 was 92 ± 68 pg/mL.

**Q.** What about the Cmax [1, 5] of the same molecule?
**A.** Its Cmax is 140 ng/mL.

**Q.** What about the Tmax [1, 5] of the same molecule?
**A.** Its Tmax is 6.72 h.

**Q.** And the AUC(0-t) [1, 5]?
**A.** The AUC(0-t) was 2430 ng·h/mL.

**Q.** What about the Cmax [1, 6] of the same molecule?
**A.** Its Cmax is 460 ng/mL.

**Q.** And the Tmax [1, 6]?
**A.** The Tmax was 6.73 h.

**Q.** And the AUC(0-t) [1, 6]?
**A.** The AUC(0-t) was 8110 ng·h/mL.

**Q.** And the Cmax ([1]; single oral gavage, 5 mg/kg)?
**A.** The Cmax was 190 ng/mL.

**Q.** What about the Tmax ([1]; single oral gavage, 5 mg/kg) of the same molecule?
**A.** The Tmax was 8 h.

**Q.** What about the AUC(0-t) ([1]; single oral gavage, 5 mg/kg) of the same molecule?
**A.** The AUC(0-t) was 3240 ng·h/mL.

**Q.** What about the “gene expression of F7” value (liver) of the same molecule?
**A.** Its value is “increased”.

**Q.** What about the “gene expression of Klkb1” value (liver) of the same molecule?
**A.** Its value is “increased”.

**Q.** What about the “gene expression of Kng1a” value (liver) of the same molecule?
**A.** The value was “increased”.

**Q.** And the “gene expression of Tpa” value (liver)?
**A.** Its value is “decreased”.

**Q.** And the “gene expression of Upa” value (liver)?
**A.** The value was “decreased”.

**Q.** What about the AST (AST; 3 mg/kg) of the same molecule?
**A.** Its AST is 196 U/L.

**Q.** And the AST (AST; 10 mg/kg)?
**A.** The AST was 207 U/L.

**Q.** And the “CD11b+Ly6Clow” value ([2]; 3 mg/kg)?
**A.** Its value is 58.4 ± 2.5 % of monocyte population.

**Q.** And the “Number of live/single PBMCs per mL blood” value ([2]; 3 mg/kg)?
**A.** Its value is 7.1 ± 1.7 *106 /mL.

**Q.** What about the “change of number of circulating PBMCs vs control” value ([2]; 10 mg/kg QD (high-dose), at 12 weeks, p = 0.003) of the same molecule?
**A.** Its value is −44%.

**Q.** And the “CD11b+Ly6Clow” value ([2]; 10 mg/kg)?
**A.** The value was 69.1 ± 6.4 % of monocyte population.

**Q.** And the “Number of live/single PBMCs per mL blood” value ([2]; 10 mg/kg)?
**A.** Its value is 3.8 ± 0.8 *106 /mL.

**Q.** And the ALT (ALT; 3 mg/kg)?
**A.** The ALT was 44 U/L.

**Q.** What about the ALT (ALT; 10 mg/kg) of the same molecule?
**A.** The ALT was 31 U/L.

**Q.** And the SAA (SAA; 3 mg/kg QD)?
**A.** The SAA was 10.4 ± 1.9 µg/mL.

**Q.** And the SAA (SAA; 10 mg/kg QD)?
**A.** Its SAA is 15.2 ± 21.1 µg/mL.

**Q.** What about the “reduction of atherosclerotic lesion area per cross-section vs control” value (APOE*3Leiden.CETP mice [3]; 3 mg/kg QD, p = 0.002) of the same molecule?
**A.** The value was 52%.

**Q.** What about the “change of lesion severity, mild lesions (type I-III)” value (APOE*3Leiden.CETP mice [3]; 10 mg/kg QD, p < 0.01 (Figure 4B)) of the same molecule?
**A.** The value was “+64%”.

**Q.** What about the “reduction of atherosclerotic lesion area per cross-section vs control” value (APOE*3Leiden.CETP mice [3]; 10 mg/kg QD, p = 0.006) of the same molecule?
**A.** The value was 48%.

**Q.** What about the “effect on heart rate” value (APOE*3Leiden.CETP mice [4]) of the same molecule?
**A.** The value was “not affected”.

**Q.** And the “effect on systolic blood pressure (SBP)” value (APOE*3Leiden.CETP mice [4])?
**A.** Its value is “not affected”.
